Three compounds from the NIST ThermoML archive (doi:10.1021/je0604479) can be followed below.

The nature of data set [1]: refractive index (Na D-line) (dimensionless). To be noted: 298.15 K; 101.33 kPa; Liquid; Standard Abbe refractometry.
The conditions of data set [2]: Liquid; for mass density: 298.15 K, 101.33 kPa.

± gives the expanded uncertainty stated by the source.

With `CN(C)C=O` [dimethylformamide], the refractive index – broadly, the speed of light in vacuum divided by its phase velocity in the sample – in data set [1] turned out to be 1.4265 ± 0.0008. Moreover, in data set [2], the mass density (as a rule, the mass of a sample divided by its volume) is given as 948.72 ± 0.49 kg/m3. Besides, in data set [2] (425.63 K), the vapor or sublimation pressure (in general, the pressure of vapour in equilibrium with the condensed phase) is 101.3 ± 0.8 kPa.
As to `CCCOCCC` [dipropyl ether], the refractive index in data set [1] came to 1.3784 ± 0.0008. Further, the mass density in data set [2] is listed as 741.81 ± 0.65 kg/m3. In data set [2] (363.16 K), the “vapor or sublimation pressure” value was 101.3 ± 0.8 kPa.
Consider `CCCO` [propan-1-ol], for which the refractive index in data set [1] was found to be 1.3836 ± 0.0008. Moreover, the mass density in data set [2] was 799.62 ± 0.57 kg/m3. Further, the “vapor or sublimation pressure” value in data set [2] (369.75 K) amounted to 101.3 ± 0.8 kPa.
